This is an account of results in patent US11980774B2, “Illumination devices and related methods for phototherapeutic light treatments in the presence of vitamins” (priority 2021, dated 2024).

Each structure is given as a SMILES string.

The test system of this assay is New York variant of SARS-CoV-2 (SARS-CoV-2 NY). Briefly: 425 nm light inhibition of SARS-CoV-2 NY in the presence of riboflavin in artificial saliva, virus titer. Format: cell-based. The conditions noted are these: FIG. 2.

Take `Cc1cc2nc3c(=O)[nH]c(=O)nc-3n(C[C@H](O)[C@H](O)[C@H](O)CO)c2cc1C` [riboflavin]: the “change in SARS-CoV-2 NY viral load compared with the 0 μM RFN sample” value (10 μM RFN in artificial saliva, 425 nm light, beginning with doses as low as 3 J/cm^2) was “notable decreases”. Moreover, the “viral load of SARS-CoV-2 NY after treatment” value (10 μM RFN, 425 nm light 15 J/cm^2) is “below measurement background levels”.
